Numbered stars: 1 amine (or outer) side, 2 acyl side, 3 side chain; on linkers, the order of the positions; unused ones are H or OH. Bridge positions count the residues as written; N and C are the ends. Square brackets hold non-standard residues; d marks the D form. Peptide text beside a SMILES is read from it. * marks the point of attachment. ξ: configuration not given here. Orn(4R-OH,5R-OCH2CH2NMe3+) = C[N+](C)(C)CCO[C@@H](N[*:3])[C@H](O)C[C@H](N[*:1])C(=O)[*:2]; hTyr(3S-OH,4S-OH,3'-OSO3H) = N[C@H](C(=O)O)[C@H](O)[C@@H](O)c1ccc(O)c(OS(=O)(=O)O)c1; pTerphenylCO(4''-OnC5H11) = CCCCCOc1ccc(-c2ccc(-c3ccc(C(=O)*)cc3)cc2)cc1; Orn(4R-OH,5R-OH) = O=C([C@H](C[C@@H](O)[C@@H](O)N[*:3])N[*:1])[*:2]; hTyr(3S-OH,4S-OH) = N[C@H](C(=O)O)[C@H](O)[C@@H](O)c1ccc(O)cc1; Pro(3S-OH,4S-Me) = C[C@H]1CN[C@H](C(=O)O)[C@H]1O; X2 = CCCCCOc1ccc(-c2cc(-c3ccc(C(=O)*)cc3)no2)cc1; Gln(3R-OH) = NC(=O)C[C@@H](O)[C@H](N)C(=O)O; X1 = C[C@H]1CN([*:1])C(C(=O)[*:2])C1O; Hyp = O=C(O)[C@@H]1C[C@@H](O)CN1; ξT = CC(O)C(N)C(=O)O
Test system: Aspergillus fumigatus (strain AF293)
Assay: Murine model of pulmonary aspergillosis (Example 9), survival and lung burden
Type: in vivo
Conditions: for Group Geometric mean / Log10 Group Geometric mean / Log10 reduction from vehicle control: terminal lung burden
Procedure: Animal Strain and Housing. Mice used in these studies were supplied by Charles River (Margate UK) and were specific pathogen free. The strain of mice used was ICR (also known as CD1 Mice) which is a well characterized outbred murine strain. Male mice were 11-15 g on receipt at our facility and allowed to acclimatize for at least seven days.
Immunosuppression. Mice were immunosuppressed on Day −4 with 150 mg/kg cyclophosphamide IP, and on Day −1 with 150 mg/kg cyclophosphamide IP and 175 mg/kg cortisone acetate SC. To prevent bacterial infection due to the immunosuppression mice were given 50 mg/kg/day ceftazidime.
Preparation of Organism and Infection. A. fumigatus strain AF293 inoculum was prepared from spore cultures grown on Sabouraud Dextrose agar (SAB) containing 50 μg/mL chloramphenicol (SABC) in vented tissue culture flasks. Following incubation for 7-10 days at 30° C., spore cultures were washed in sterile phosphate buffered saline (PBS) containing 0.05% Tween 80. Spore count was determined using a haemocytometer and spores were diluted in PBS to ˜6.9×10^6 CFU/mL. Inoculum concentration was confirmed by quantitative culture onto SABC agar. Neutropenic mice lungs were infected with 0.04 mL (0.02 mL/nares) of ˜6.9×10^6 CFU/mL (˜2.8×10^5 cfu/mouse) of A. fumigatus strain AF293 by intranasal (IN) instillation under temporary 2.5% isoflurane induced anesthesia.
Preparation of Test Articles. Micafungin was provided as a 50 mg vial (Lot 02323002, expiry 08/2017) and was prepared as per manufacturer instructions by adding 5 mL saline for injection (SFI) directly into the vial to make a 10 mg/mL stock solution. This solution was then diluted further in SFI to a working concentration of 0.2 mg/mL. The compound was administered IP at 10 mL/kg to achieve a 2 mg/kg dose. It was prepared fresh once and stored at 4° C. between doses.
Test article CD101 stock was prepared at 2 mg/mL in 10% DMSO/1% Tween 20 diluent. A clear non particulate solution was obtained following gentle mixing. The stock was kept at 4° C. until required. Study doses of 5 mg/kg (0.5 mg/mL) and 10 mg/kg (1 mg/mL) were prepared from the 2 mg/mL stock as required by diluting in 10% DMSO/1% Tween 20 diluent. The 2 mg/mL stock was used undiluted for the 20 mg/kg study dose. All doses were administered IP at 10 mL/kg.
Treatment. For this study, treatments were initiated on day five pre-infection according to treatment groups outlined in Table 15. A total of 78 mice (six mice per treatment group) were used in the study.
Endpoints. The primary endpoint for this study was survival within agreed ethical limits (>20% weight loss, severe hypothermia <34° C., inability to reach food or drink, severe hunching). Mice were monitored by daily weight measurements with observations as frequently as clinical condition required. Mice presenting with severe clinical deterioration were humanely euthanized using an overdose of pentobarbitone administered by IP injection following clinical assessment and the time of death was recorded. Animal carcasses were stored at −20° C. for assessment of burden. Ten days post infection all surviving animals were weighed and had their clinical condition assessed prior to being euthanized. Final survival numbers were recorded and analyzed as described below and carcasses frozen at −20° C. prior to further processing.
A secondary endpoint for the study was terminal lung tissue burden. Immediately following confirmation of death, carcasses were frozen at −20° C. prior to tissue dissection and processing. The frozen carcasses were thawed at room temperature and the lungs removed and placed into pre-weighed bead-beating tubes containing 2 mL of PBS and subjected to mechanical disruption. Organ homogenates were diluted further in PBS and quantitatively cultured for A. fumigatus onto SABC and incubated at 30° C. for 24-48 hours. […]

[1] = 5 mg/kg IP Day 0 (1 h post infection)
[2] = 2 mg/kg IP Day 0 (1 h post infection)

With `CCCCCOc1ccc(-c2ccc(-c3ccc(C(=O)N[C@H]4C[C@@H](O)[C@@H](OCC[N+](C)(C)C)NC(=O)C5C(O)[C@@H](C)CN5C(=O)[C@H]([C@@H](C)O)NC(=O)[C@H]([C@H](O)[C@@H](O)c5ccc(O)cc5)NC(=O)[C@@H]5C[C@@H](O)CN5C(=O)C(C(C)O)NC4=O)cc3)cc2)cc1` (stereo partly drawn) [CD101] ({pTerphenylCO(4''-OnC5H11)}-[Orn(4R-OH,5R-OCH2CH2NMe3+)][ξT][Hyp][hTyr(3S-OH,4S-OH)]T[X1]; lactam 1-C) the “Mean Survival” value [1] was 67.8 h, the “Median Survival” value [1] was 64.6 h and the “Mean Survival” value (5 mg/kg IP Day −1) was 72.1 h. The “Median Survival” value (5 mg/kg IP Day −1) was 67.6 h, the “Mean Survival” value (5 mg/kg IP Day −3) was 70.0 h and the “Median Survival” value (5 mg/kg IP Day −3) was 67.7 h. For the same compound, the “Mean Survival” value (5 mg/kg IP Day −5) was 65.3 h, the “Median Survival” value (5 mg/kg IP Day −5) was 65.3 h and the “Mean Survival” value (10 mg/kg IP Day −1) was 121.8 h. For the same compound, the “Median Survival” value (10 mg/kg IP Day −1) was 81.0 h, the “Mean Survival” value (10 mg/kg IP Day −3) was 76.9 h and the “Median Survival” value (10 mg/kg IP Day −3) was 73.4 h. For the same compound, the “Mean Survival” value (10 mg/kg IP Day −5) was 67.2 h, the “Median Survival” value (10 mg/kg IP Day −5) was 65.7 h and the “survival compared to micafungin one day before infection” value (10 mg/kg and 20 mg/kg IP one day before infection) was “statistically greater survival”. For the same compound, the “Mean Survival” value (20 mg/kg IP Day −1) was 155.6 h, the “Median Survival” value (20 mg/kg IP Day −1) was 72.3 h and the “Mean Survival” value (20 mg/kg IP Day −3) was 91.9 h. The “Median Survival” value (20 mg/kg IP Day −3) was 69.8 h, the “Mean Survival” value (20 mg/kg IP Day −5) was 75.5 h and the “Median Survival” value (20 mg/kg IP Day −5) was 69.8 h. For the same compound, the “Group Geometric mean” value (5 mg/kg IP Day 0) was 5.65 × 10^4 CFU/g, the “Log10 Group Geometric mean” value (5 mg/kg IP Day 0) was 4.75 CFU/g and the “Log10 reduction from vehicle control” value (5 mg/kg IP Day 0) was −0.98 CFU/g. The “Group Geometric mean” value (5 mg/kg IP Day −1) was 3.75 × 10^4 CFU/g, the “Log10 Group Geometric mean” value (5 mg/kg IP Day −1) was 4.57 CFU/g and the “Log10 reduction from vehicle control” value (5 mg/kg IP Day −1) was −0.80 CFU/g. The “Group Geometric mean” value (5 mg/kg IP Day −3) was 5.71 × 10^4 CFU/g, the “Log10 Group Geometric mean” value (5 mg/kg IP Day −3) was 4.76 CFU/g and the “Log10 reduction from vehicle control” value (5 mg/kg IP Day −3) was −0.98 CFU/g. For the same compound, the “Group Geometric mean” value (5 mg/kg IP Day −5) was 6.36 × 10^4 CFU/g, the “Log10 Group Geometric mean” value (5 mg/kg IP Day −5) was 4.80 CFU/g and the “Log10 reduction from vehicle control” value (5 mg/kg IP Day −5) was −1.03 CFU/g. The “Group Geometric mean” value (10 mg/kg IP Day −1) was 5.17 × 10^3 CFU/g, the “Log10 Group Geometric mean” value (10 mg/kg IP Day −1) was 3.71 CFU/g and the “Log10 reduction from vehicle control” value (10 mg/kg IP Day −1) was 0.06 CFU/g. The “Group Geometric mean” value (10 mg/kg IP Day −3) was 7.34 × 10^3 CFU/g, the “Log10 Group Geometric mean” value (10 mg/kg IP Day −3) was 3.87 CFU/g and the “Log10 reduction from vehicle control” value (10 mg/kg IP Day −3) was −0.09 CFU/g. The “Group Geometric mean” value (10 mg/kg IP Day −5) was 3.40 × 10^4 CFU/g, the “Log10 Group Geometric mean” value (10 mg/kg IP Day −5) was 4.53 CFU/g and the “Log10 reduction from vehicle control” value (10 mg/kg IP Day −5) was −0.76 CFU/g. For the same compound, the “Group Geometric mean” value (20 mg/kg IP Day −1) was 1.12 × 10^4 CFU/g, the “Log10 Group Geometric mean” value (20 mg/kg IP Day −1) was 4.05 CFU/g and the “Log10 reduction from vehicle control” value (20 mg/kg IP Day −1) was −0.28 CFU/g. For the same compound, the “Group Geometric mean” value (20 mg/kg IP Day −3) was 4.92 × 10^4 CFU/g, the “Log10 Group Geometric mean” value (20 mg/kg IP Day −3) was 4.69 CFU/g and the “Log10 reduction from vehicle control” value (20 mg/kg IP Day −3) was −0.92 CFU/g. For the same compound, the “Group Geometric mean” value (20 mg/kg IP Day −5) was 8.35 × 10^3 CFU/g, the “Log10 Group Geometric mean” value (20 mg/kg IP Day −5) was 3.92 CFU/g and the “Log10 reduction from vehicle control” value (20 mg/kg IP Day −5) was −0.15 CFU/g.

`CCCCCOc1ccc(-c2cc(-c3ccc(C(=O)N[C@H]4C[C@@H](O)[C@@H](O)NC(=O)[C@@H]5[C@@H](O)[C@@H](C)CN5C(=O)[C@H]([C@H](O)CC(N)=O)NC(=O)[C@H]([C@H](O)[C@@H](O)c5ccc(O)c(OS(=O)(=O)O)c5)NC(=O)[C@@H]5C[C@@H](O)CN5C(=O)[C@H]([C@@H](C)O)NC4=O)cc3)no2)cc1` [Micafungin, micafungin, reference compound] (X2-[Orn(4R-OH,5R-OH)]T[Hyp][hTyr(3S-OH,4S-OH,3'-OSO3H)][Gln(3R-OH)][Pro(3S-OH,4S-Me)]; lactam 1-C) was tested, and the “Mean Survival” value [2] was 75.3 h, the “Median Survival” value [2] was 73.3 h and the “Mean Survival” value (2 mg/kg IP Day −1) was 64.7 h. For the same compound, the “Median Survival” value (2 mg/kg IP Day −1) was 64.7 h, the “Group Geometric mean” value (2 mg/kg IP Day 0) was 1.08 × 10^4 CFU/g and the “Log10 Group Geometric mean” value (2 mg/kg IP Day 0) was 4.03 CFU/g. For the same compound, the “Log10 reduction from vehicle control” value (2 mg/kg IP Day 0) was −0.26 CFU/g, the “Group Geometric mean” value (2 mg/kg IP Day −1) was 4.34 × 10^4 CFU/g and the “Log10 Group Geometric mean” value (2 mg/kg IP Day −1) was 4.64 CFU/g. The “Log10 reduction from vehicle control” value (2 mg/kg IP Day −1) was −0.86 CFU/g.

From US20240076347A1, “METHODS FOR PREVENTING FUNGAL INFECTIONS” (Cidara Therapeutics, Inc., priority 2016, published 2024)
